Results on 1 compound are retold here after US20210340629A1, “BIOMARKERS FOR CANCER THERAPY” (The Council of the Queensland Institute of Medical Research, priority 2018, published 2021).

Holding throughout (format): cell-based, human
One assay deals with C092 cell line. The assay is described as follows: Cell viability of C092 with LC3B knock down following G9a inhibitor treatment. The conditions noted are these: data not shown. The source says: Therefore, the basal levels of important autophagy related proteins were examined in the melanoma cell lines used in this study. It is has been shown that the inhibition of G9a can cause an induction of the autophagy-related gene 5 (ATG5), Beclin-1 (known also as ATG6) and the conversion of microtubule-associated protein 1 light chain 3 beta (MAP1LC3B or LC3B for short) I (17 KDa) to LCB3 II (15 KDa) through proteolytic cleavage and lipidation (de Narvajas et al. (2013) and Li et a. (2015). These changes are considered a hallmark of mammalian autophagy. When cells undergo autophagy, conversion of a fraction of cytoplasmic LC3B Ito autophagic membrane form LC3B II can be detected by western blot or by immunofluorescence. This conversion correlates with autophagic activity (Kabeya et al (2000) Embo J 19, 5720-5728), therefore the levels of LC3B II can be considered a reliable marker of autophagy. […] To assess whether lowering LC3B levels in the C092 non-responsive cell line would allow increased sensitivity to the G9a inhibitor treatment, cell viability of C092 following G9a inhibitor treatment was assessed.

Assay [1] deals with D05 and C008 melanoma cell lines. The assay is described as follows: Proliferation by IncuCyte Zoom real time cell imaging, sensitive lines. On the procedure: Four cell lines were then chosen for further analysis. These were C006 (NRAS mt), C092 (Triple wt), C008 (NF1 mt) and D05 (BRAF mt). These four lines are representatives of the 4 cutaneous melanoma genomic subtypes and include 2 lines (C008 and D05) that were very sensitive to the inhibitor and 2 lines that were less sensitive (C006 and C092). Proliferation of these lines was evaluated by real time cell imaging using IncuCyte Zoom where cells were grown for 48 hours in the presence or absence of 5 μM UNC0642.
For proliferation studies, cells (5×10^3) were seeded in 96-place wells and allowed to adhere overnight, and incubated in fresh growth medium in the presence of either the G9a inhibitor UNC0642 (Sigma Aldrich) or the vehicle control DMSO (Sigma Aldrich). Proliferation was evaluated via real-time imaging using IncuCyte Zoom (Essen BioScience) and/or by performing a 3-(4,5-dimethylthiazol-2-yl)-2,5-diphenyltetrazolium bromide ([…]) assay. After monitoring the cells, 20 μL of MTT (5 mg/mL; Sigma-Aldrich) was added. The plates were incubated at 37° C. for 3 h before the supernatants were removed, and 100 μL of isopropanol was added to each well. The absorbance value (optical density) of each well was measured at 570 nm.

For a further assay, the system named is PARP. As to the kind of experiment: PARP cleavage as a measure of apoptosis. The conditions noted are these: any cell line treated, data not shown. From the text:
Having established that G9a inhibition is effective in inducing death of melanoma cells in vitro, the molecular basis for this effect was then investigated. First, cells treated with UNC0642 were examined for its effect on the cleavage of PARP as a measure of apoptosis.

The test system of the next assay is melanoma cell lines. As to the kind of experiment: Cell viability by MTT assay, melanoma cell lines. The conditions noted are these: 5 μM, 48 hours, vs vehicle (DMSO), FIG. 2. As for the experimental part:
UNC0642 was purchased from Sigma Aldrich. The panel of human melanoma cell lines, derived from cutaneous melanomas, is shown in Table 1 and the cells have all been previously described. Cells were maintained in Roswell Park Memorial Institute (RPMI) 1640 supplemented with 10% fetal bovine serum (FBS), 100 U/mL penicillin, and 100 µg/mL streptomycin in a humidified atmosphere of 5% CO2 at 37° C. Normal melanocytes were grown in Clonetics™ MGM™-4 Melanocyte Growth Medium-4 supplemented with CaCl2, phorbol-12-myristate 13-acetate (PMA), recombinant human fibroblast growth factor basic (rhFGF-B), recombinant human insulin (rh-insulin), hydrocortisone, bovine pituitary extract (BPE), FBS and GA-1000 (30 μg/ml Gentamycin and 15 ng/ml Amphotericin) (Lonza).
For proliferation studies, cells (5×10^3) were seeded in 96-place wells and allowed to adhere overnight, and incubated in fresh growth medium in the presence of either the G9a inhibitor UNC0642 (Sigma Aldrich) or the vehicle control DMSO (Sigma Aldrich). Proliferation was evaluated via real-time imaging using IncuCyte Zoom (Essen BioScience) and/or by performing a 3-(4,5-dimethylthiazol-2-yl)-2,5-diphenyltetrazolium bromide ([…]) assay. After monitoring the cells, 20 μL of MTT (5 mg/mL; Sigma-Aldrich) was added. […] The absorbance value (optical density) of each well was measured at 570 nm.

`COc1cc2c(NC3CCN(C(C)C)CC3)nc(N3CCC(F)(F)CC3)nc2cc1OCCCN1CCCC1` [UNC0642]: the “cell viability following G9a inhibitor treatment” value in the assay with C092 cell line is “significantly reduced”. In addition, the proliferation entry in assay [1] (D05 and C008, 5 μM, 48 hours, compared to vehicle control, data not shown) was “significant reduction in proliferation”. Also, in assay [1] (over 48 hours treatment, 5 μM, FIG. 3A), the number of cells result is given as “significantly decreased”. Besides, in the assay on PARP, the PARP cleavage entry is “No observable PARP cleavage”. Further, the “Cell survival (cell viability, MTT assay)” value with melanoma cell lines is “significantly attenuated”.
